# Data: patent publication US7135457B1, “Random peptides that bind to gastro-intestinal tract (GIT) transport receptors and related methods” (Cytogen Corporation, priority 1997, dated 2006)
# Peptide text beside a SMILES is read from it. * marks the point of attachment. Dansyl = CN(C)c1cccc2c(S(=O)(=O)*)cccc12
# What was measured:
# [1] = Procedure: In particular, phages selected in vitro to each receptor or binding site located in the GIT were amplified in E. coli, PEG-precipitated, resuspended in TBS and the titer of each phage sample was determined by plaquing in E. coli as described above. […] Using the in situ loop model described above, 0.5 ml of preselected phage library solution was injected into the tied-off portion of the duodenum/jejunum. Blood was collected into heparinized tubes from the portal vein at 0, 15, 30, 45 and 60 minutes. A blood sample was taken from the systemic circulation at the end of the experiment. Similarly, the portion of the duodenum/jejunum used for phage injection was taken at the end of the experiment.
# Thirty microliters of the collected portal blood (neat and 10^−2, 10^−4, 10^−6 dilutions) was added to 30 μl E. coli K91Kan cells (overnight culture) and incubated at 37° C. for 10 min. Subsequently, 3 ml of top agarose was added and the samples were plated for plaques. One hundred microliters of the collected portal blood was added to 100 μl of E. coli K91Kan. Five milliliters of LB medium was then added and the samples were incubated at 37° C. overnight in a rotating microbial incubator. The E. coli was removed by centrifugation and the amplified phage supernatant samples were either titered directly or were PEG-precipitated, resuspended in TBS and titered. Following titration of the amplified phage, samples containing phage from each set of animals were combined, adjusting the titer of each sample to the same titer, and were plated for plaques on LB agar plates (22 cm^2 square plates). Either 12,000 or 24,000 phage were plated for plaques.
# Thirty microliters of the collected systemic blood (neat and 10^−2, 10^−4, 10^−6 dilutions) was added to E. coli K91Kan cells, incubated at 37° C. for 10 min. Three ml of top agarose was then added and the samples were plated for plaques. One hundred microliters of the collected systemic blood was added to 100 μl of E. coli K91Kan, incubated at 37° C. for 10 min. Five milliliters of LB medium was then added and the samples were incubated at 37° C. overnight in a rotating microbial incubator. The E. coli was removed by centrifugation and the amplified phage supernatant samples were either titered directly or were PEG-precipitated, resuspended in TBS and titered. Following titration of the amplified phage, samples containing phage from each set of animals were combined, adjusting the titer of each sample to the same titer, and were plated for plaques on LB agar plates (22 cm^2 square plates). Either 12,000 or 24,000 phage were plated for plaques. The intestinal tissue portion used in each closed loop was excised. […] Alternatively, the tissue (in PBS supplemented with protease inhibitors) was homogenized in an Ultra Thorex homogenizer, washed 3 times in PBS containing protease inhibitors and resuspended in PBS containing protease inhibitors (Int-G samples). In each case, serial dilutions (neat and 10^−2, 10^−4, 10^−6 dilutions) of the tissue homogenate was titered in E. coli.
# The phage amplified from the portal blood, systemic blood and intestinal tissue was plated for plaques. […] The filters were air-dried, and the DNA was cross-linked to the filter (UV crosslinking: 2 min, high setting). The filters were incubated in pre-hybridization buffer (6×SSC, 5×Denhardt's solution, 0.1% SDS, 20 μg/ml yeast tRNA) at 40° C.-45° C. for at least 60 min.
# Synthetic oligonucleotides, (22-mers), complimentary to regions coding for the receptor or binding sites used to create the preselected phage library, were synthesized (see Table 14 below).
# The oligonucleotides (5 pmol) were 5′ end labelled with ^32P-ATP and T4 polynucleotide kinase and approximately 2.5 pmol of labelled oligonucleotide was used in hybridization studies. […] The filters were air-dried and exposed for autoradiography for 15 hours, 24 hours or 72 hours.
# Hybridization data for pools from each receptor group of rats was compiled.
# [2] = Drug potency, peptide loading and size of coacervated particles; assay type: physicochemical; conditions: formulation 1 particles (coacervation), blend; for Insulin (insulin potency): coated with the named peptide; for Peptide (level of peptide coated onto the particles): measured by fluorescence
# [3] = system: fixed Caco-2 or C2BBe1 cells; test: ELISA of GST fusion proteins on fixed Caco-2 or C2BBe1 cells; assay type: binding; conditions: Caco-2
# Procedure: Fixed Caco-2, C2BBe1, and A431 cell plates were prepared by growing cells on tissue culture treated microtiter plates. When cells were confluent, plates were fixed with 10% formaldehyde, washed twice with PBS and stored with 0.5% BSA-PBS at −20° C. […] The standard ELISA procedure was followed at this point.
# The standard ELISA procedure was modified as follows. GST proteins were diluted to an appropriate concentration in PBS containing 1% BSA and 0.05% Tween20 (1% BPT), titered and incubated one hour at room temperature. Following five washes an anti-GST monoclonal antibody was added (Sigma, St. Louis Clone GST-2 diluted 1:10,000 in 1% BPT) and incubated one hour. After five more washes goat anti-mouse IgG2b-HRP was added (Southern Biotechnology Associates Inc., Birmingham, Ala., diluted 1:4000 in 1% BPT) and incubated one hour. After five washes plates were developed with TMB peroxidase substrate (Kirkegard and Perry, Gaithersburg, Md.). All data is presented with background binding subtracted.
# [4] = system: P100 membrane fractions derived from Caco-2 cells; test: Dansylated peptide ELISA on P100: PAX2 and HAX42 peptides relative binding
# Procedure: The peptides and proteins were analyzed by a dansylated peptide ELISA method in which 96 well plates were coated overnight at 4° C. with 100 μl/well coating protein (normally 100 μg/ml P100 membrane fraction) in 0.05M carbonate buffer pH9.6. Nonspecific binding was blocked using 200 μl/well, 2% Marvel/PBS for 2 hours at 37° C. prior to incubation with dansylated peptides. The plates were washed three times with PBS/0.05% Tween 20 and after each subsequent incubation step. […] A buffer blank control was included to ensure that background binding to plastic was not due to the antibodies used in the assay system. […] The plates were then incubated with an anti-mouse λ-HRP conjugated antibody (Southern Biotech 1060-05) at a 1:10,000 dilution in blocking solution, 100 μl/well for 1 hour at room temperature. Plates were developed using 75 μl/well Bionostics TMB substrate and incubated for approximately 10 minutes. The developing reaction was stopped using Bionostics Red Stop solution (25 μl/well), and the optical density of the plates was read at 650 nm.
# [5] = PAX2 peptides, ratio to ZElan021 (HAX42 = 1.00), first 20 μg/ml column
# [6] = PAX2 peptides, ratio to ZElan021 (HAX42 = 1.00), first 50 μg/ml column
# [7] = PAX2 peptides, ratio to ZElan021 (HAX42 = 1.00), second 20 μg/ml column
# [8] = PAX2 peptides, ratio to ZElan021 (HAX42 = 1.00), second 50 μg/ml column
# [9] = HAX42 peptides, ratio to ZElan021 (arbitrary 1.00), first 50 μg/ml column
# [10] = HAX42 peptides, ratio to ZElan021 (arbitrary 1.00), second 50 μg/ml column
compound,measurement,setting,value
STPPSREAYSRPYSVDSDSDTNAKHSSHNRRLRTRSRPN [PAX2],presence in the systemic circulation (in words),[1]; text summary of HPT1 and hPEPT1 pools,found in the portal and systemic circulation
same,presence in the intestine samples or fractions (in words),[1]; text summary of the four pools,not found in the intestine samples
same,Insulin (insulin potency),[2],60.7 mg/g
same,Peptide (level of peptide coated onto the particles),[2],3.51 µL/mg
gst-SPCGGGSWCRFMQGGLFGGRTDGCGAHRNRTSASLEPPSSDY [GST-SNi34],binding to fixed Caco-2 or C2BBe1 cells relative to GST control,[3],bound
SPCGGSWGRFMQGGLFGGRTDGCGAHRNRTSASLEPPSSDY [SNi34],Insulin (insulin potency),[2],61.5 mg/g
same,Peptide (level of peptide coated onto the particles),[2],4.03 µL/mg
C[C@H](NC(=O)[C@H](CC(N)=O)NC(=O)[C@@H](NC(=O)[C@@H](N)CCCCNS(=O)(=O)c1cccc2c(N(C)C)cccc12)[C@@H](C)O)C(=O)N[C@@H](CCCCN)C(=O)N[C@@H](Cc1c[nH]cn1)C(=O)N[C@@H](CO)C(=O)N[C@@H](CO)C(=O)N[C@@H](Cc1c[nH]cn1)C(=O)N[C@@H](CC(N)=O)C(N)=O [ZElan055] (H-K(Dansyl)TNAKHSSHN-NH2),Binding value at 20 μg/ml,[4]; [5],0.99
same,Binding value at 50 μg/ml,[4]; [6],1.10
same,Binding value at 20 μg/ml,[4]; [7],0.73
same,Binding value at 50 μg/ml,[4]; [8],0.59
CC(C)C[C@H](NC(=O)[C@H](CCCNC(=N)N)NC(=O)[C@H](CCCNC(=N)N)NC(=O)[C@H](CC(N)=O)NC(=O)[C@H](Cc1c[nH]cn1)NC(=O)[C@H](CO)NC(=O)[C@H](CO)NC(=O)[C@H](Cc1c[nH]cn1)NC(=O)[C@H](CCCCN)NC(=O)[C@H](C)NC(=O)[C@H](CC(N)=O)NC(=O)[C@@H](NC(=O)[C@@H](N)CCCCNS(=O)(=O)c1cccc2c(N(C)C)cccc12)[C@@H](C)O)C(=O)N[C@@H](CCCNC(=N)N)C(=O)N[C@H](C(=O)N[C@@H](CCCNC(=N)N)C(=O)N[C@@H](CO)C(=O)N[C@@H](CCCNC(=N)N)C(=O)N1CCC[C@H]1C(=O)N[C@@H](CC(N)=O)C(N)=O)[C@@H](C)O [ZElan032] (H-K(Dansyl)TNAKHSSHNRRLRTRSRPN-NH2),Binding value at 50 μg/ml,[4]; [6],0.95
CC(C)C[C@H](NC(=O)[C@H](CC(N)=O)NC(=O)[C@@H](N)CCCCNS(=O)(=O)c1cccc2c(N(C)C)cccc12)C(=O)N[C@@H](CCCNC(=N)N)C(=O)N[C@@H](CO)C(=O)N[C@@H](CC(=O)O)C(=O)N[C@@H](CC(N)=O)C(=O)N[C@@H](C)C(=O)N[C@@H](CCCCN)C(=O)N[C@@H](CCC(=O)O)C(=O)N1CCC[C@H]1C(=O)NCC(=O)N[C@@H](CC(=O)O)C(=O)N[C@@H](Cc1ccc(O)cc1)C(=O)N[C@@H](CC(N)=O)C(=O)N[C@@H](CS)C(=O)N[C@@H](CS)C(=O)NCC(=O)N[C@@H](CC(N)=O)C(=O)NCC(=O)N[C@@H](CC(N)=O)C(=O)N[C@@H](CO)C(=O)N[C@H](C(=O)NCC(=O)N[C@@H](CCCNC(=N)N)C(=O)N[C@@H](CCCCN)C(=O)N[C@H](C(=O)N[C@@H](Cc1ccccc1)C(=O)N[C@@H](CC(N)=O)C(=O)N[C@@H](CCCNC(=N)N)C(N)=O)C(C)C)[C@@H](C)O [ZElan071] (H-K(Dansyl)NLRSDNAKEPGDYNCCGNGNSTGRKVFNR-NH2),Binding value at 50 μg/ml,[4]; [9],0.89
same,Binding value at 50 μg/ml,[4]; [10],0.75
gst-RGSTGTAGGERSGVLNLHTRDNASGSGFKPWYPSNRGHK [GST-5PAX5],binding to fixed Caco-2 or C2BBe1 cells relative to GST control,[3],weak to moderate binding
CC(C)C[C@H](NC(=O)[C@H](CCCNC(=N)N)NC(=O)[C@H](CO)NC(=O)[C@@H](NC(=O)[C@H](CCCCN)NC(=O)[C@H](CC(N)=O)NC(=O)[C@H](CCCNC(=N)N)NC(=O)[C@@H](NC(=O)[C@H](CC(N)=O)NC(=O)[C@H](CCCNC(=N)N)NC(=O)[C@@H](N)CCCCNS(=O)(=O)c1cccc2c(N(C)C)cccc12)[C@@H](C)O)[C@@H](C)O)C(=O)N[C@@H](CO)C(=O)N[C@@H](C)C(=O)N[C@@H](CC(N)=O)C(=O)N1CCC[C@H]1C(=O)N[C@@H](Cc1c[nH]cn1)C(=O)N[C@@H](CCCNC(=N)N)C(=O)N[C@@H](CO)C(=O)N[C@@H](Cc1c[nH]cn1)C(=O)N[C@@H](CCCNC(=N)N)C(N)=O [ZElan084] (H-K(Dansyl)RNTRNKTSRLSANPHRSHR-NH2),Binding value at 20 μg/ml,[4]; [7],0.93
same,Binding value at 50 μg/ml,[4]; [8],0.77
CC(C)C[C@H](NC(=O)[C@H](CCCNC(=N)N)NC(=O)[C@H](CCCNC(=N)N)NC(=O)[C@@H](N)CCCCNS(=O)(=O)c1cccc2c(N(C)C)cccc12)C(=O)N[C@@H](CCCNC(=N)N)C(=O)N[C@H](C(=O)N[C@@H](CCCNC(=N)N)C(=O)N[C@@H](CO)C(=O)N[C@@H](CCCNC(=N)N)C(N)=O)[C@@H](C)O [ZElan057] (H-K(Dansyl)RRLRTRSR-NH2),Binding value at 20 μg/ml,[4]; [5],0.08
same,Binding value at 50 μg/ml,[4]; [6],0.56
same,Binding value at 50 μg/ml,[4]; [8],0.25
CC(C)[C@H](NC(=O)[C@H](CCCCN)NC(=O)[C@H](CCCNC(=N)N)NC(=O)[C@@H](N)CCCCNS(=O)(=O)c1cccc2c(N(C)C)cccc12)C(=O)N[C@@H](Cc1ccccc1)C(=O)N[C@@H](CC(N)=O)C(=O)N[C@@H](CCCNC(=N)N)C(=O)N[C@@H](CCCNC(=N)N)C(=O)N[C@@H](CCCNC(=N)N)C(=O)N1CCC[C@H]1C(=O)N[C@@H](CO)C(N)=O [ZElan065] (H-K(Dansyl)RKVFNRRRPS-NH2),Binding value at 20 μg/ml,"[4]; HAX42 peptides, ratio to ZElan021 (arbitrary 1.00)",0.00
same,Binding value at 50 μg/ml,[4]; [9],0.54
same,Binding value at 50 μg/ml,[4]; [10],0.30
CC(C)C[C@H](NC(=O)[C@H](CCCNC(=N)N)NC(=O)[C@H](CCCNC(=N)N)NC(=O)[C@@H](N)CCCCNS(=O)(=O)c1cccc2c(N(C)C)cccc12)C(=O)N[C@@H](CCCNC(=N)N)C(=O)N[C@H](C(=O)N[C@@H](CCCNC(=N)N)C(=O)N[C@@H](CO)C(=O)N[C@@H](CCCNC(=N)N)C(=O)N1CCC[C@H]1C(=O)N[C@@H](CC(N)=O)C(N)=O)[C@@H](C)O [ZElan056] (H-K(Dansyl)RRLRTRSRPN-NH2),Binding value at 20 μg/ml,[4]; [5],0.00
same,Binding value at 50 μg/ml,[4]; [6],0.21
same,Binding value at 20 μg/ml,[4]; [7],0.16
same,Binding value at 50 μg/ml,[4]; [8],0.21
